In patent US5208220A, “Composition and treatment with biologically active peptides and antibiotics which inhibit DNA gyrase” (priority 1991, dated 1993) one finds MIC data, which are given here for 1 substance.

Holding throughout (type): cell-based
Common to all, as to details: compound alone

For test [1], the system named is P.aeruginosa strain 107 (which is gentamicin - resistant). Description: MIC in trypticase soy broth, test wells (Example 1). The procedure:
(§1) Approximately 1-5×10^5 colony forming units (CFU's) of P.aeruginosa strain 27853 or of P.aeruginosa strain 107 (which is gentamicin - resistant) dispersed in 100 ul of trypticase soy broth (TSB) were added to each of a series of test wells. […] For purposes of this example, Peptide 1 is amide-terminated Magainin II, Peptide 2 is of the following structural formula: […]

Test [2] concerns P.aeruginosa strain 27853. The test is described as above. The procedure:
as §1

In test [3] the test system is isolates of strain MR-PSA (multiply resistant) Pseudomonas aeruginosa. Description: MIC in microtiter plates, Mueller-Hinton broth (Examples 2 and 3). The procedure:
For Examples 2 and 4, microorganisms employed in the assays were grown according to the procedure described in Stutman, et al., Antimicrobial Agents in Chemotherapy, Vol. 34, July 1990.
The final assays were then conducted in microtiter plates containing Mueller-Hinton broth 10^5 organisms were added to each well.
The minimal inhibitory concentrations, (MIC's), according to the procedure of Example 2, were tested against various isolates of strain MR-PSA, of Pseudomonas aeruginosa, except that Peptide 4 replaces Peptide 1.

Where no end group is shown, it is not given here.

For GIGKFLHSAKKFGKAFVGEIMNS-NH2 [Peptide 1], the MIC – broadly, the lowest concentration that inhibits growth of the organism – in test [1] is greater than 32 µg/mL; in test [2], greater than 32 µg/mL; in test [3] (Table 2, MR-PSA isolate 1), 32 µg/mL; in test [3] (Table 2, MR-PSA isolate 2), greater than 256 µg/mL; in test [3] (Table 2, MR-PSA isolate 3), 32 µg/mL; in test [3] (Table 2, MR-PSA isolate 4), 256 µg/mL.
